Laboratory results reported in patent publication US20250011311A1, “AMIDO HETEROAROMATIC COMPOUNDS” (AstraZeneca AB, priority 2022, published 2025).

How the values were obtained:
[1] = biological target: recombinant 17bHSD13 (N2-K300) (Homo sapiens (Human), UniProt Q7Z5P4); test: In Vitro 17bHSD13 Enzyme Assay; type: biochemical; settings: 80 nM 17bHSD13, 0.5 mM NAD, 20 μM Estradiol, 2.5 h; estradiol to estrone by LC-MS/MS
Procedure: In Vitro 17bHSD13 Enzyme Assay
The enzyme reaction was initiated by addition, using CERTUS-FLEX dispenser (GYGER), of 20 μl of substrate solution containing NAD (SIGMA, N1511) and Estradiol (SIGMA, E8875). […] Final assay conditions were 80 nM of 17bHSD13, 0.5 mM of NAD, 20 μM Estradiol and various concentrations of compound in buffer (5 mM EDTA (TEKNOVA E0306), 0.01% DDM (AFFYMETRIX D310) in 50 mM Tris-Cl, pH 7.4).
(§1) SCIEX LC-MS/MS system: Sample was injected with CTC analytical injector, SHIMATZU LC pumps LC20 and analyzed on the SCIEX API 5000 LCMSMS system with the following settings. […] The mobile phases consist of A (water with 0.2% formic acid) and B (acetonitrile with 0.2% formic acid). The LC gradient profile is as follows: 50% B during 0 to 0.5 min, a linear increase to 100% B during 0.5 to 1 min, hold at 100% B during 1 to 1.6 min then back to 50% B from 1.6 to 2 min. […] Detection was performed on a API 5000 LC/MS/MS system with a triple quadrupole mass spectrometer, a TURBO V ion source, in multiple reaction monitoring (MRM) mode at positive polarity with APCI probe. […] The dwell times were 100 ms for each transition and a depolarization and collision energy of 100 and 40, respectively. Data from MS signals was using area under curve (AUC). Ratio=Estrone/(Estrone+Estradiol)
(§2) […] […] was used for curve fitting and calculation of IC50 values.
(§3) Compound effect was calculated with the formula below;
(§4) where X represents the effect in the presence of test compound, min is DMSO and max is the maximum inhibition of enzyme using a known inhibitor as control.

[2] = biological target: over expressed HSD17β13 in HEK293S cells (Homo sapiens (Human), UniProt Q7Z5P4); test: In Vitro 17bHSD13 Cell Assay; type: cell-based; settings: HEK293S cells over expressing HSD17β13; estradiol to estrone conversion, 18 h, LC-MS/MS; read-out: 17bHSD1713 Cell assay IC50
Chain of over expressed HSD17β13 in HEK293S cells (Q7Z5P4 20-300): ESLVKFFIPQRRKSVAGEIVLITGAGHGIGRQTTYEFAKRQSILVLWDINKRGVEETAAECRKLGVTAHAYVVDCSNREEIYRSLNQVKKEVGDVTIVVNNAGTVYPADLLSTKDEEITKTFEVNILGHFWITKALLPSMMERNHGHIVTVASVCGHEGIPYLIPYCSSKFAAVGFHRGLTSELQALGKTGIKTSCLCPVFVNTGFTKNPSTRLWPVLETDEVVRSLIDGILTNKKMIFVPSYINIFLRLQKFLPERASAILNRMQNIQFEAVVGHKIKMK
Procedure: In Vitro 17bHSD13 Cell Assay
Inhibition of 17bHSD13 was measured in a cell-based assay with over expressed HSD17β13 in HEK293S cells, measuring estradiol to estrone conversion by LCMS/MS.
Samples were analyzed using LC-MS/MS.
as §1, with “analysed” for “analyzed”
as §2, §3, §4

[3] = biological target: over expressed HSD17β9 in HEK293S cells (Homo sapiens (Human), UniProt Q92781); test: In Vitro 17bHSD9 Cell Assay; type: cell-based; settings: HEK293S cells over expressing HSD17β9; retinol to retinal conversion, 18 h, LC-MS/MS; read-out: 17bHSD9 Cell assay IC50
Chain of over expressed HSD17β9 in HEK293S cells (Q92781 whole entry): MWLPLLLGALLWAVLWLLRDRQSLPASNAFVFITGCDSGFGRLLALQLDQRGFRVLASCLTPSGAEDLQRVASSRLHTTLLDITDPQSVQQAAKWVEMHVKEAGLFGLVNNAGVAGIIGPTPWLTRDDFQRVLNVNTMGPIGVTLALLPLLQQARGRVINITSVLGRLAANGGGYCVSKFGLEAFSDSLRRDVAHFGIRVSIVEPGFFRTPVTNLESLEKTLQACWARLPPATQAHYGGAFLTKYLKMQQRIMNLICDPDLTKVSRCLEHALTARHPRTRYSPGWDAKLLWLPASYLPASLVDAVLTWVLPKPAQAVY
Procedure: In Vitro 17bHSD9 Cell Assay
Inhibition of 17bHSD9 was measured in a cell-based assay with over expressed HSD17β9 in HEK293S cells, measuring retinol to retinal conversion by LCMS/MS.
Cells were plated in 384 well plates (GREINER CELL culture plate 384w black/clear Poly-D-Lysine) at 10 K c/w in 30 μl of culture media (DMEM with GLUTAMAX plus 10% FBS). […] After 18 h of cell culturing for 20 μl of media was transferred using BRAVO dispensing robot (AGILENT) to a GREINER PP 384 well plate (781280) and 40 μl of 50% acetonitrile was added. Samples were analyzed using LC-MS/MS.
SCIEX LC-MS/MS system: Sample was injected with CTC analytical injector, SHIMATZU LC pumps LC20 and analysed on the SCIEX API 5000 LCMSMS system with the following settings. Samples were chromatographed on a WATERS, symmetry, C8, 3.5 μm, 2.1×50 mm) column at constant flow rate of 0.5 mL/min. The mobile phases consists of A (water with 0.2% formic acid) and B (acetonitrile with 0.2% formic acid). The LC gradient profile is as follows: 50% B during 0 to 0.1 min, a linear increase to 100% B during 0.1 to 0.8 min, hold at 100% B during 0.8 to 1.5 min then back to 50% B from 1.5 to 1.6 min and hold during run time. The run time was 2 min with retention times of approximately 1.54 and 1.62 min for Retinol and Retinal, respectively. Detection was performed on a API 5000 LC/MS/MS system with a triple quadrupole mass spectrometer, a TURBO V ion source, in multiple reaction monitoring (MRM) mode at positive polarity with ESI probe. The MRM pairs were m/z 269.3 to m/z 93.0 and m/z 285.2 to 161.0. for Retinol and Retinal, respectively. The dwell times were 100 ms for each transition and a depolarization and collision energy of 50 and 25, respectively. Data from MS signals was using area under curve (AUC). Ratio=Retinal/(Retinal+Retinol).
as §2, §3, §4

Chain of recombinant 17bHSD13 (N2-K300) (Q7Z5P4 2-300): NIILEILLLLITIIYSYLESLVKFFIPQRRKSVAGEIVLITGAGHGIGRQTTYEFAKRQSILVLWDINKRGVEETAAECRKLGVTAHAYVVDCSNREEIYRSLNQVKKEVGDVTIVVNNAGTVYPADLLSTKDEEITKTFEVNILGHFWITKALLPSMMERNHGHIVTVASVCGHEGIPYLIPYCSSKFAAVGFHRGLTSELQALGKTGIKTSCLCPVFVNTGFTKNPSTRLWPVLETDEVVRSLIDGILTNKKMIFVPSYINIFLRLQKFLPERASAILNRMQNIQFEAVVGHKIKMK

Structure (SMILES)	IC50 [1]	IC50 [2]	IC50 [3]
COc1cccc(N2CCN(C(=O)c3noc(-c4cc(C(F)(F)F)[nH]c(=O)c4)n3)CC2)c1 [Example 10, 4-(3-(4-(3-Methoxyphenyl)piperazine-1-carbonyl)-1,2,4-oxadiazol-5-yl)-6-(trifluoromethyl)pyridin-2(1H)-one]	474 nM	4140 nM	> 50000 nM
N#Cc1c(C(=O)N2CC(C(F)(F)F)C2)noc1-c1cc(F)c(F)c(O)c1F [Example 28, 5-(2,4,5-Trifluoro-3-hydroxyphenyl)-3-(3-(trifluoromethyl)azetidine-1-carbonyl)isoxazole-4-carbonitrile]	368 nM	4130 nM	
COc1ccc(N2CCN(C(=O)c3noc(-c4cc(F)c(F)c(O)c4F)n3)CC2)cc1 [Example 55, (4-(4-Methoxyphenyl)piperazin-1-yl)(5-(2,4,5-trifluoro-3-hydroxyphenyl)-1,2,4-oxadiazol-3-yl)methanone]	112 nM	960 nM	
COc1cccc(N2CCN(C(=O)c3noc(-c4cc(F)c(F)c(O)c4F)n3)CC2)c1 [Example 61, (4-(3-Methoxyphenyl)piperazin-1-yl)(5-(2,4,5-trifluoro-3-hydroxyphenyl)-1,2,4-oxadiazol-3-yl)methanone]	50 nM	730 nM	> 50000 nM
CN(C(=O)c1noc(-c2cc(F)c(F)c(O)c2F)n1)c1cccc(C#N)c1 [Example 63, N-(3-Cyanophenyl)-N-methyl-5-(2,4,5-trifluoro-3-hydroxyphenyl)-1,2,4-oxadiazole-3-carboxamide]		1190 nM	
O=C(c1noc(-c2cc(F)c(F)c(O)c2F)n1)N1Cc2ccc(F)cc2C1 [Example 65, (5-Fluoroisoindolin-2-yl)(5-(2,4,5-trifluoro-3-hydroxyphenyl)-1,2,4-oxadiazol-3-yl)methanone]	134 nM	200 nM	
Cc1cc2nc(CN(C)C(=O)c3noc(-c4cc(F)c(F)c(O)c4F)n3)[nH]c2cc1C [Example 71, N-((5,6-Dimethyl-1H-benzo[d]imidazol-2-yl)methyl)-N-methyl-5-(2,4,5-trifluoro-3-hydroxyphenyl)-1,2,4-oxadiazole-3-carboxamide]	68 nM	28400 nM	
Cc1ccc2[nH]c(CN(C)C(=O)c3noc(-c4cc(F)c(F)c(O)c4F)n3)nc2c1 [Example 73, N-Methyl-N-((5-methyl-1H-benzo[d]imidazol-2-yl)methyl)-5-(2,4,5-trifluoro-3-hydroxyphenyl)-1,2,4-oxadiazole-3-carboxamide]	88 nM	21600 nM	> 50000 nM
Cc1cccnc1CN(C(=O)c1noc(-c2cc(F)c(F)c(O)c2F)n1)C(C)C [Example 75, N-Isopropyl-N-((3-methylpyridin-2-yl)methyl)-5-(2,4,5-trifluoro-3-hydroxyphenyl)-1,2,4-oxadiazole-3-carboxamide]	268 nM	5600 nM	
CN(C)C(=O)C1CCCN1C(=O)c1ccc(-c2cc(F)c(F)c(O)c2F)s1 (stereo not shown) [Example 105, N,N-Dimethyl-1-(5-(2,4,5-trifluoro-3-hydroxyphenyl)thiophene-2-carbonyl)pyrrolidine-2-carboxamide]	3760 nM	1260 nM	

Second part, the compound after the results:

IC50 [1]	IC50 [2]	IC50 [3]	Structure (SMILES)
198 nM	3500 nM		N#Cc1c(C(=O)N2CCC(n3cc(-c4ccc(F)cc4)[nH]c3=O)CC2)noc1-c1cc(F)c(F)c(O)c1F [Example 24, 3-(4-(4-(4-Fluorophenyl)-2-oxo-2,3-dihydro-1H-imidazol-1-yl)piperidine-1-carbonyl)-5-(2,4,5-trifluoro-3-hydroxyphenyl)isoxazole-4-carbonitrile]
95 nM	410 nM	> 50000 nM	O=C(c1noc(-c2cc(F)c(F)c(O)c2F)n1)N1CCN(c2ccccc2)CC1 [Example 81, (4-Phenylpiperazin-1-yl)(5-(2,4,5-trifluoro-3-hydroxyphenyl)-1,2,4-oxadiazol-3-yl)methanone]
166 nM	> 50000 nM		CN(C(=O)c1nnc(-c2ccc(F)c(O)c2)o1)c1nnnn1-c1ccccc1 [Example 91, 5-(4-Fluoro-3-hydroxyphenyl)-N-methyl-N-(1-phenyl-1H-tetrazol-5-yl)-1,3,4-oxadiazole-2-carboxamide]
41 nM	1540 nM	> 50000 nM	CN(C(=O)c1noc(-c2ccc(F)c(O)c2)n1)c1nnnn1-c1ccccc1 [Example 92, 5-(4-Fluoro-3-hydroxyphenyl)-N-methyl-N-(1-phenyl-1H-tetrazol-5-yl)-1,2,4-oxadiazole-3-carboxamide]
5340 nM	18100 nM		O=C(NCc1ccnn1C1CCCCC1)c1cnc(-c2ccc(F)c(O)c2)o1 [Example 100, N-((1-Cyclohexyl-1H-pyrazol-5-yl)methyl)-2-(4-fluoro-3-hydroxyphenyl)oxazole-5-carboxamide]
50 nM	420 nM	> 50000 nM	O=C(c1cc(-c2ccc(F)c(O)c2)on1)N1CC[C@H](c2ccccc2)C1 [Example 101, (R)-(5-(4-Fluoro-3-hydroxyphenyl)isoxazol-3-yl)(3-phenylpyrrolidin-1-yl)methanone]
52 nM	700 nM	> 50000 nM	O=C(c1noc(-c2cc(F)c(F)c(O)c2F)n1)N1CCC2(C1)OCc1ccccc12 (stereo not shown) [Example 102, (3H-Spiro[isobenzofuran-1,3′-pyrrolidin]-1′-yl)(5-(2,4,5-trifluoro-3-hydroxyphenyl)-1,2,4-oxadiazol-3-yl)methanone]
